This note sets out measurements from patent US8217189B2, “Chromenone potassium channel blockers and uses thereof” (Bionomics Limited, priority 2006, dated 2012).

Broadly, the EC50 is the concentration that produces a half-maximal response. Read a low EC50 as greater potency.

In this test the target is T1, human Kv1.3 ion channel (Homo sapiens, UniProt P22001).
T1 construct: Human Jurkat cells (which endogenously express hKv1.3) were used in place of rat L929 cells; endogenous in cells; host or cells: human Jurkat cells
T1 sequence (P22001 whole entry): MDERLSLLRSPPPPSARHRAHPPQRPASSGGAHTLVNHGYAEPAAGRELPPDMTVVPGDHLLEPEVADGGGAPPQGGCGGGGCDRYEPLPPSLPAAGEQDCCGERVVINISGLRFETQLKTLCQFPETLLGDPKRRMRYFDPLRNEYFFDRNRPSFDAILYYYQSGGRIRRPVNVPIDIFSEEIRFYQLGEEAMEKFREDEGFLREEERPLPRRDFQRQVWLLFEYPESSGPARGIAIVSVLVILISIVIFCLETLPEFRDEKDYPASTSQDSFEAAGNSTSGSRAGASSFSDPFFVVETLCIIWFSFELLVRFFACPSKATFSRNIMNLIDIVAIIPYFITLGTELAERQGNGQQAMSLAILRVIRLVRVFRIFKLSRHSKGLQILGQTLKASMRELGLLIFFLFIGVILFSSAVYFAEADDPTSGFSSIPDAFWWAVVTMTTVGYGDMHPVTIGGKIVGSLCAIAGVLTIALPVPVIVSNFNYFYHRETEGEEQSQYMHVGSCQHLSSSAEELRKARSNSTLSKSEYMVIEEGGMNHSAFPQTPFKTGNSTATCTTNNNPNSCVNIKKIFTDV
Put plainly: Inhibition of Kv1.3 currents, planar patch clamp in human Jurkat cells. Type of test: cell-based. To be noted: Jurkat cells endogenously expressing hKv1.3, averaged dose response data from 3 or more cells. On the procedure:
Potency of compounds to inhibit the human Kv1.3 ion channel were determined as follows:
EC50 values for inhibition of Kv1.3 currents were determined by the method according to Schmitz et al (2005) Molecular Pharmacology 68, 1254-1270 with the following differences:
1. Human Jurkat cells (which endogenously express hKv1.3) were used in place of rat L929 cells.
2. All electrophysiology was performed using planar patch clamp (Port-A-Patch, Nanion Technologies Gmbh, Munich) in contrast to conventional patch clamp.
3. EC50 values shown were determined from averaged dose response data obtained from 3 or more cells.
For orientation: In patch-clamp work, channel activity is measured electrically.
Regarding `Cc1c2ccoc2c(OCCCc2ccccc2)c2oc(CN(C)C)cc(=O)c12` [Example 2, 7-Dimethylaminomethyl-4-methyl-9-(3-phenylpropoxy)furo[3,2-g]chromen-5-one], the midpoint of the response, the EC50, lay at 29 nM. In other words, the double-digit nanomolar range. In turn, `Cc1c2ccoc2c(OCC[C@@H](C)c2ccccc2)c2oc(CN(C)C)cc(=O)c12` [8 d)] had an EC50 of 14 nM. Under `CN(C)Cc1cc(=O)c2c(OCCCCOc3ccccc3)c3ccoc3cc2o1` [Example 5, 7-Dimethylaminomethyl-4-(4-phenoxybutoxy)-furo[3,2-g]chromen-5-one] stands 1420 nM; under `Cc1c2ccoc2c(OCCCc2ccccc2)c2oc(CN3CCOCC3)cc(=O)c12` [Example 3, 4-Methyl-7-(morpholin-4-ylmethyl)-9-(3-phenylpropoxy)furo[3,2-g]chromen-5-one], 190 nM. Under `Cc1c2ccoc2c(OCCCc2ccc(F)cc2)c2oc(CN(C)C)cc(=O)c12` [6 c)] stands 28 nM; under `CSCc1cc(=O)c2c(C)c3ccoc3c(OCCCc3ccccc3)c2o1` [1 c)], 30 nM; under `Cc1c2ccoc2c(OCCCc2ccccc2)c2oc(CS(C)(=O)=O)cc(=O)c12` [Example 9, 7-Methanesulfonylmethyl-4-methyl-9-(phenyl-propoxy)-furo[3,2-g]chromen-5-one], 200 nM. As for `COc1c2ccoc2c(OCCCc2ccccc2)c2oc(CN(C)C)cc(=O)c12` [7 c)], the figure is 270 nM.
